Experimental data reported in US20250241884A1, “Pharmaceutical Compositions of D10-Docosahexaenoic Acid or Esters Thereof” (BioJiva LLC, priority 2022, published 2025).
“Also recorded” adds a separate entry of the source.

Experiments:
[1] = test system: adult male wild-type C57BL/6J mice; test: Protection against geographic atrophy after intravitreal ferric ammonium citrate in mice fed D-DHA; type: in vivo; details: for protection against geographic atrophy: intravitreal ferric ammonium citrate
Excerpt: In this example, two cohorts of adult male wild-type C57BL/6J mice (Jackson Labs) were used. Both cohorts were fed identical feed containing 0.25% or 0.5% D-DHA or matching amounts of DHA as controls. After 4 weeks, the mice were given an intravitreal injection of 1 microliter of 0.5 millimolar ferric ammonium citrate diluted in 0.9% saline (test) or 1 microliter of 0.9% saline (control). Mice were then continued on their respective diets for 4 weeks after injection in order to evaluate whether D-DHA could protect against geographic atrophy which is related to AMD.

[2] = Predicted steady-state D-DHA substitution and plasma decline without dosing in patients, calculated from Table 2 / FIG. 1; set-up: species or system human; details: for D-DHA substitution rate at steady-state (% of total DHA): DHA in human diet 130 mg/day
Excerpt: In contrast to controlled experimental diets, naturally occurring DHA is consumed by patients treated with D-DHA which can dilute the relative percentage of administered D-DHA absorbed with the total DHA pool and its final concentration at steady state in blood and eventually in the target tissue such as retina. The data and standard curves referred to above allow for the determination of retinal steady-state active D-DHA concentrations with reasonable accuracy by calculating the D-DHA/total DHA ratio in plasma and/or red blood cells. Table 4 exemplifies this by using a mean daily dietary intake of about 130 mg of DHA per day (which represents the 90th percentile of the mean usual DHA intake by males >51 years of age in the US.
In each case, the first order kinetics evidence that a dose of 250 mg dose of D-DHA will provide for a steady-state ratio of active D-DHA based on the total DHA concentration present, as set forth in Table 4. Extrapolating backwards from the case in Table 4, a dose of at least 130 mg/day of D-DHA should provide a 1:1 ratio of active D-DHA to DHA. That ratio has been shown above to be therapeutic. And a dose of 250 mg of higher should provide a ratio of 1.9:1 or higher which provides a margin for non-compliance as decribed herein above.
Tables 5, 6, and 7 are based on Table 2 and describe the time it takes for plasma D-DHA levels to fall below 50% or below 20% with 5 different daily doses of D-DHA in (i) patients in the 90th percentile of daily intake consuming up to 130 mg DHA (Table 5), (ii) those in the 95th percentile with a daily intake of up to 180 mg DHA (Table 6), and (iii) an example of a patient consuming more than one meal of oily fish per week with up to 260 mg daily DHA intake.

geographic atrophy = test: Proposed evaluation of geographic atrophy progression in patients versus placebo (safflower oil); type: in vivo, human
Method: Based on the above experiment, the following provides a proposed evaluation in reduction in the rate of macular degeneration progression in a cohort of patients treated with deuterated docosahexaenoic acid ethyl ester, as compared to a cohort of test patients treated with placebo. Specifically, the treated cohort is administered 250 mg/day of deuterated docosahexaenoic acid ethyl ester or 250 mg/day of safflower oil. The patients are maintained on this dosing regimen throughout the clinical study. Periodic measurements of further geographic atrophy development are obtained.
Dosing is continued for 6 or 12, or 18 or 24 months. At that time, the average extent of geographic atrophy progression is measured for each cohort. The efficacy of the treatment protocol is evaluated by comparing the extent of geographic atrophy progression in a treated population against a placebo population. […]

[3] = Daily D-DHA Dose 250 mg, Background DHA/Day 130 mg (90th percentile, US males)
[4] = Daily D-DHA Dose 250 mg, Background DHA/Day 180 mg (95th percentile, US males)
[5] = Daily D-DHA Dose 250 mg, Background DHA/Day 260 mg (>1 meal of oily fish per week)
[6] = Daily D-DHA Dose 500 mg, Background DHA/Day 130 mg (90th percentile, US males)
[7] = Daily D-DHA Dose 500 mg, Background DHA/Day 180 mg (95th percentile, US males)
[8] = Daily D-DHA Dose 500 mg, Background DHA/Day 260 mg (>1 meal of oily fish per week)
[9] = Daily D-DHA Dose 750 mg, Background DHA/Day 130 mg (90th percentile, US males)
[10] = Daily D-DHA Dose 750 mg, Background DHA/Day 180 mg (95th percentile, US males)
[11] = Daily D-DHA Dose 750 mg, Background DHA/Day 260 mg (>1 meal of oily fish per week)
[12] = Daily D-DHA Dose 1000 mg, Background DHA/Day 130 mg (90th percentile, US males)
[13] = Daily D-DHA Dose 1000 mg, Background DHA/Day 180 mg (95th percentile, US males)
[14] = Daily D-DHA Dose 1000 mg, Background DHA/Day 260 mg (>1 meal of oily fish per week)
[15] = Daily D-DHA Dose 1250 mg, Background DHA/Day 130 mg (90th percentile, US males)
[16] = Daily D-DHA Dose 1250 mg, Background DHA/Day 180 mg (95th percentile, US males)
[17] = Daily D-DHA Dose 1250 mg, Background DHA/Day 260 mg (>1 meal of oily fish per week)

[2H]C([2H])(/C=C\CC)/C=C\C([2H])([2H])/C=C\C([2H])([2H])/C=C\C([2H])([2H])/C=C\C([2H])([2H])/C=C\CCC(=O)O [D-DHA, D-10-docosahexaenoic acid]
protection against geographic atrophy ([1]; concentration of D-DHA at least 50% of the total DHA in the retina, feed 0.25% or 0.5% D-DHA): fully protected against geographic atrophy | protection against geographic atrophy ([1]; lower concentrations of D-DHA to DHA (below 50% of total DHA in the retina)): protection was achieved but at reduced rates | protection / reduction in lipid peroxidation ([1]; ratio of about 1:4 of D-DHA to DHA): the protection is accorded; also recorded: sufficient to provide for therapeutic reduction in lipid peroxidation | protection / reduction in lipid peroxidation ([1]; ratio of at least about 1:1 D-DHA to DHA): protect is maximal; also recorded: near maximal results are obtained | D-DHA Substitution Rate [2, 3]: ~66% | D-DHA/DHA Ratio [2, 3]: 1.92 to 1 | Time to reach 20% in Plasma (0.2:1 D-DHA to DHA Ratio) w/o taking oral D-DHA [2, 3]: ≤ 77 days | Time to reach ≤50% in Plasma (1:1 D-DHA to DHA Ratio) w/o taking oral D-DHA [2, 3]: ≤ 22 days | D-DHA Substitution Rate [2, 4]: ~58% | Days to reach ≤50% in Plasma (1:1 D-DHA to DHA Ratio) w/o taking oral D-DHA [2, 4]: ≤ 11 days | Time to reach 20% in Plasma (0.2:1 D-DHA to DHA Ratio) w/o taking oral D-DHA [2, 4]: ≤ 66 days | D-DHA Substitution Rate [2, 5]: ~49% | Time to reach 20% in Plasma (0.2:1 D-DHA to DHA Ratio) w/o taking oral D-DHA [2, 5]: ≤ 29 days | D-DHA Substitution Rate [2, 6]: ~79% | Time to reach 20% in Plasma (0.2:1 D-DHA to DHA Ratio) w/o taking oral D-DHA [2, 6]: ≤ 46 days | Time to reach ≤50% in Plasma (1:1 D-DHA to DHA Ratio) w/o taking oral D-DHA [2, 6]: ≤ 6 days | D-DHA Substitution Rate [2, 7]: ~74% | Days to reach ≤50% in Plasma (1:1 D-DHA to DHA Ratio) w/o taking oral D-DHA [2, 7]: ≤ 35 days | Time to reach 20% in Plasma (0.2:1 D-DHA to DHA Ratio) w/o taking oral D-DHA [2, 7]: ≤ 90 days | D-DHA Substitution Rate [2, 8]: ~66% | Days to reach ≤50% in Plasma (1:1 D-DHA to DHA Ratio) w/o taking oral D-DHA [2, 8]: ≤ 8 days | Time to reach 20% in Plasma (0.2:1 D-DHA to DHA Ratio) w/o taking oral D-DHA [2, 8]: ≤ 63 days | D-DHA Substitution Rate [2, 9]: ~85% | Time to reach 20% in Plasma (0.2:1 D-DHA to DHA Ratio) w/o taking oral D-DHA [2, 9]: ≤ 101 days | Time to reach ≤50% in Plasma (1:1 D-DHA to DHA Ratio) w/o taking oral D-DHA [2, 9]: ≤ 60 days | D-DHA Substitution Rate [2, 10]: ~81% | Days to reach ≤50% in Plasma (1:1 D-DHA to DHA Ratio) w/o taking oral D-DHA [2, 10]: ≤ 49 days | Time to reach 20% in Plasma (0.2:1 D-DHA to DHA Ratio) w/o taking oral D-DHA [2, 10]: ≤ 104 days | D-DHA Substitution Rate [2, 11]: ~74% | Days to reach ≤50% in Plasma (1:1 D-DHA to DHA Ratio) w/o taking oral D-DHA [2, 11]: ≤ 26 days | Time to reach 20% in Plasma (0.2:1 D-DHA to DHA Ratio) w/o taking oral D-DHA [2, 11]: ≤ 81 days | D-DHA Substitution Rate [2, 12]: ~88% | Time to reach 20% in Plasma (0.2:1 D-DHA to DHA Ratio) w/o taking oral D-DHA [2, 12]: ≤ 125 days | Time to reach ≤50% in Plasma (1:1 D-DHA to DHA Ratio) w/o taking oral D-DHA [2, 12]: ≤ 70 days | D-DHA Substitution Rate [2, 13]: ~85% | Days to reach ≤50% in Plasma (1:1 D-DHA to DHA Ratio) w/o taking oral D-DHA [2, 13]: ≤ 59 days | Time to reach 20% in Plasma (0.2:1 D-DHA to DHA Ratio) w/o taking oral D-DHA [2, 13]: ≤ 114 days | D-DHA Substitution Rate [2, 14]: ~79% | Days to reach ≤50% in Plasma (1:1 D-DHA to DHA Ratio) w/o taking oral D-DHA [2, 14]: ≤ 38 days | Time to reach 20% in Plasma (0.2:1 D-DHA to DHA Ratio) w/o taking oral D-DHA [2, 14]: ≤ 93 days | D-DHA Substitution Rate [2, 15]: ~91% | Time to reach 20% in Plasma (0.2:1 D-DHA to DHA Ratio) w/o taking oral D-DHA [2, 15]: ≤ 132 days | Time to reach ≤50% in Plasma (1:1 D-DHA to DHA Ratio) w/o taking oral D-DHA [2, 15]: ≤ 77 days | D-DHA Substitution Rate [2, 16]: ~87% | Days to reach ≤50% in Plasma (1:1 D-DHA to DHA Ratio) w/o taking oral D-DHA [2, 16]: ≤ 67 days | Time to reach 20% in Plasma (0.2:1 D-DHA to DHA Ratio) w/o taking oral D-DHA [2, 16]: ≤ 121 days | D-DHA Substitution Rate [2, 17]: ~83% | Days to reach ≤50% in Plasma (1:1 D-DHA to DHA Ratio) w/o taking oral D-DHA [2, 17]: ≤ 47 days | Time to reach 20% in Plasma (0.2:1 D-DHA to DHA Ratio) w/o taking oral D-DHA [2, 17]: ≤ 102 days | D-DHA substitution rate at steady-state (% of total DHA) ([2]; Fixed daily D-DHA dose 250 mg): 66% | D-DHA substitution rate at steady-state (% of total DHA) ([2]; Fixed daily D-DHA dose 500 mg): 79% | D-DHA substitution rate at steady-state (% of total DHA) ([2]; Fixed daily D-DHA dose 1000 mg): 88% | time to reach steady state concentrations of active D-DHA after start of therapy ([2]; plasma, patient): about 14 days | time to reach steady state concentrations of active D-DHA after start of therapy ([2]; red blood cell, patient): about 45 days | time to reach steady state concentration of active D-DHA after start of therapy ([2]; skeletal muscle tissue, patient): about 11 weeks | percent reduction in geographic atrophy [(F/E)×100] (geographic atrophy; individual patient treated with 1,000 mg of D-DHA versus placebo cohort, 6, 12, 18 or 24 months): positive percent reduction in geographic atrophy that is statistically significant

[2H]C([2H])(/C=C\CC)/C=C\C([2H])([2H])/C=C\C([2H])([2H])/C=C\C([2H])([2H])/C=C\C([2H])([2H])/C=C\CCC(=O)OCC [deuterated docosahexaenoic acid ethyl ester]
reduction in the rate of disease progression (geographic atrophy progression) (geographic atrophy; cohort of patients, 250 mg/day, 6 or 12 or 18 or 24 months, versus placebo (safflower oil)): statistically significant reduction in the rate of disease progression | percent reduction in geographic atrophy area [(C/B)×100] (geographic atrophy; cohort of treated patients versus placebo cohort, 6, 12, 18 or 24 months post start of therapy): positive percent reduction in geographic atrophy area that is statistically significant
